Assay results: US7429616B2, “Synthesis and complete stereochemical assignment of psymberin/irciniastatin for use as antitumor compounds” (Board of Regents, University of Texas System, priority 2005, dated 2008)

Tests used:
Format in all cases: cell-based, human
Details in all cases: average of three experiments, concentration range 0.2 nM to 20 μM; for GI50 / LC50: Homo sapiens; for GI50: read-out: GI50 (concentration that inhibits 50% growth); for LC50: read-out: LC50 (concentration that kills 50% of the cells)
HeLa = test: Cytotoxicity, CellTiter-Glo Luminescent Cell Viability Assay, HeLa
Description: (§1) The cytotoxicities of compounds 28-a, 28-b, and 29-a were evaluated against the human cancer cell lines HeLa, SK-MEL-5, and SK-MEL-28. The cytotoxicity evaluations were performed, over a concentration range of 0.2 nM to 20 μM, using the CellTiter-Glo™ Luminescent Cell Viability Assay, a product of Promega Corporation (Madison, Wis. USA), according to the protocol detailed in Promega's Technical Bulletin No. 288. Each value is the average value obtained from three experiments. GI50 is the concentration that inhibits 50% growth; TGI is the concentration that inhibits 100% growth; and LC50 is the concentration that kills 50% of the cells.

SK-MEL-5 = test: Cytotoxicity, CellTiter-Glo Luminescent Cell Viability Assay, SK-MEL-5
Description: as §1

SK-MEL-28 = test: Cytotoxicity, CellTiter-Glo Luminescent Cell Viability Assay, SK-MEL-28
Description: as §1

Compound	GI50 (HeLa) [nM]	LC50 (HeLa) [nM]	TGI (concentration that inhibits 100% growth) (HeLa) [nM]	GI50 (SK-MEL-5) [nM]	LC50 (SK-MEL-5) [nM]	TGI (concentration that inhibits 100% growth) (SK-MEL-5) [nM]	GI50 (SK-MEL-28) [nM]	LC50 (SK-MEL-28) [nM]	TGI (concentration that inhibits 100% growth) (SK-MEL-28) [nM]
C=C(C)C[C@@H](OC)[C@H](O)C(=O)N[C@@H](OC)[C@@H]1C[C@@H](O)C(C)(C)C(CC(O)[C@@H](C)C2Cc3c(C)c(O)cc(O)c3C(=O)O2)O1 (stereo partly drawn) [Compound 29-a]	60	900	200	300	1700	800	200	1100	550
C=C(C)CC(OC)[C@H](O)C(=O)N[C@@H](OC)[C@@H]1C[C@@H](O)C(C)(C)[C@@H](C[C@H](O)C(C)C2Cc3c(C)c(O)cc(O)c3C(=O)O2)O1 (stereo partly drawn) [Compound 28-a, psymberin]	0.23	1.6	0.90	0.3	1.3	0.7	0.23	1.2	0.7
C=C(C)C[C@H](OC)[C@H](O)C(=O)N[C@H](OC)[C@@H]1C[C@@H](O)C(C)(C)C(CC(O)[C@@H](C)C2Cc3c(C)c(O)cc(O)c3C(=O)O2)O1 (stereo partly drawn) [Compound 28-b]	80	900	200	300	1100	700	110	900	400
